Assay results from patent publication US20100286247A1, “Methods of Protection from Oxidative Stress” (Trustees of Boston University, priority 2005, published 2010).
“Also recorded” adds a separate entry of the source. {P} = phosphate

Legend:
[1] = tested on: intracellular ROS in normal newborn human dermal fibroblasts; assay: Dichlorofluorescein diacetate (DCF) assay of intracellular ROS, FACScan; type: cell-based; settings: for DCF fluorescence (intracellular ROS) compared to diluent: 100 μM pTT / pCC, 40 μM TO / TOC1 / TOC2
Procedure: Normal newborn human dermal fibroblasts were cultured from foreskin specimens into DMEM supplemented with 10% CS as described above. Due to the large number of cells needed for time course experiments, and to minimize donor variability, in dichlorofluorescein diacetate FACS experiments cells from three different donors were combined.
Purified lyophilized oligonucleotides were obtained and prepared for cell treatment as described above. All treatments involved a single stimulation with T-oligo, after which cells were harvested at various times without medium changes or addition of more T-oligo. Treatment doses were 100 μM pTT and 40 μM TO except in dose-response experiments; these concentrations were determined in previous experiments to be optimal for measuring DNA damage responses using these T-oligos.^142,150,228
Complementary and scrambled oligonucleotides were chosen for each T-oligo. pAA and pCC were used as controls for pTT, and the complementary 11-base pCTAACCCTAAC (TOC1, SEQ ID NO: 22) and a scrambled sequence pGATCGATCGAT (TOC2, SEQ ID NO: 23) were used as controls for the T-oligo TO.
(§1) H2DCFDA stock solution (1 mg/ml) was thawed and diluted in Hanks' Balanced Salt Solution, 1× liquid without phenol red (GIBCO Invitrogen, Carlsbad, Calif.), to a working concentration of 100 μM immediately before use. H2DCFDA is converted by intracellular esterases to dichlorofiuorescein (DCF). When oxidized by intracellular ROS, it will fluoresce at 530 nm when excited by 480 nm light. […] All work involving DCF was conducted in minimal room light. Peaks on FACScan plots that shift to the right indicate greater fluorescence and increased ROS levels. For NADPH oxidase inhibitor studies using DPI,^237,239 the DPI stock solution was added directly to DCF treatment solution to achieve a final DPI treatment concentration of 50 μM.
Hydrogen peroxide positive controls were used to rule out saturation of the DCF probe in the T-oligo dose response experiments. Fibroblasts were exposed to 1 mM, 5 mM and 10 mM H2O2 solutions in PBS for 15 minutes following DCF incubation for 30 minutes, harvested and analyzed as described above.
The horseradish peroxidase assay data was analyzed by one-way ANOVA. DCF assay FACScan results were analyzed using Cellquest software (Becton-Dickinson, Calif.). All peak positions on x-axis of the fluorescence histogram plot were determined visually (using the software) and recorded as a number. Peak position values were then compared using one-way ANOVA.

NAD(P)H oxidase = assay: DCF assay with NADPH oxidase inhibitor DPI; type: cell-based, human; settings: 50 μM DPI in DCF solution; pTT or TO treated fibroblasts
Procedure: as §1
Because p53-dependent ROS production in fibroblasts has been attributed to NAD(P)H oxidase activity,^169 a specific NADPH oxidase inhibitor, diphenyliodonium chloride (DPI),^239 was added to the DCF assay medium to determine the role of NADPH oxidases in T-oligo mediated ROS induction.

Question: For “pCTAACCCTAAC (5' {P}, sugars by position and backbone not given here) [TOC1, complementary 11-base control oligonucleotide for TO, reference compound]”, which “DCF fluorescence (intracellular ROS) compared to diluent” value [1] is on record?
Answer: The value was “not significantly different from each other”.

Question: With “pGATCGATCGAT (5' {P}, sugars by position and backbone not given here) [TOC2, reference compound]” as the molecule, how does the “DCF fluorescence (intracellular ROS) compared to diluent” value [1] read?
Answer: The value was “not significantly different from each other; also recorded: overlapping with diluent curve”.

Question: How did the “DCF peak shift of positive control” value ([1]; 1 mM H2O2 for 15 minutes) turn out when `OO` [H2O2, Hydrogen peroxide, reference compound] was run?
Answer: Its value is “greater shift than any of the T-oligo treatments”.

Question: With `[Cl-].c1ccc([I+]c2ccccc2)cc1` [DPI, diphenyliodonium chloride] as the molecule, how does the “effect of DPI on T-oligo-stimulated ROS (DCF fluorescence)” value (NAD(P)H oxidase) read?
Answer: Its value is “consistently abrogated the increase in ROS stimulated by T-oligos”.
